Assay results: the NIST ThermoML archive (doi:10.1021/je500696p)

Assays:
[1] = xn = mol fraction of the nth substance listed; details: 100 kPa, Liquid, Vibrating tube method
[2] = excess molar enthalpy (molar enthalpy of mixing); xn = mol fraction of the nth substance listed; details: 100 kPa, Liquid, Calvet calorimetry

CCCC[N+](C)(C)C.O=S(=O)([N-]S(=O)(=O)C(F)(F)F)C(F)(F)F [butyltrimethylammonium bis(trifluoromethylsulfonyl)imide] + CCO
Details	excess molar enthalpy [kcal/mol]	mass density [kg/m3]
[1], 293.15 K, x2 = 0	–	1397.1
[1], 293.15 K, x2 = 0.1284	–	1379.5
[1], 293.15 K, x2 = 0.2585	–	1357.1
[1], 293.15 K, x2 = 0.3814	–	1329.7
[1], 293.15 K, x2 = 0.5031	–	1293.9
[1], 293.15 K, x2 = 0.6487	–	1232.1
[1], 293.15 K, x2 = 0.7823	–	1142
[1], 293.15 K, x2 = 0.8561	–	1066.3
[1], 293.15 K, x2 = 0.8763	–	1040.6
[1], 293.15 K, x2 = 0.9039	–	1000.1
[1], 293.15 K, x2 = 0.95	–	916.4
[1], 293.15 K, x2 = 0.9745	–	860.2
[1], 295.15 K, x2 = 0	–	1395.3
[1], 295.15 K, x2 = 0.1284	–	1377.7
[1], 295.15 K, x2 = 0.2585	–	1355.3
[1], 295.15 K, x2 = 0.3814	–	1327.8
[1], 295.15 K, x2 = 0.5031	–	1292
[1], 295.15 K, x2 = 0.6487	–	1230.3
[1], 295.15 K, x2 = 0.7823	–	1140.1
[1], 295.15 K, x2 = 0.8561	–	1064.5
[1], 295.15 K, x2 = 0.8763	–	1038.8
[1], 295.15 K, x2 = 0.9039	–	998.3
[1], 295.15 K, x2 = 0.95	–	914.6
[1], 295.15 K, x2 = 0.9745	–	858.4
[1], 298.15 K, x2 = 0	–	1392.7
[1], 298.15 K, x2 = 0.1284	–	1375.1
[1], 298.15 K, x2 = 0.2585	–	1352.6
[1], 298.15 K, x2 = 0.3814	–	1325.1
[1], 298.15 K, x2 = 0.5031	–	1289.3
[1], 298.15 K, x2 = 0.6487	–	1227.5
[1], 298.15 K, x2 = 0.7823	–	1137.3
[1], 298.15 K, x2 = 0.8561	–	1061.7
[1], 298.15 K, x2 = 0.8763	–	1036
[1], 298.15 K, x2 = 0.9039	–	995.6
[1], 298.15 K, x2 = 0.95	–	911.9
[1], 298.15 K, x2 = 0.9745	–	855.8
[1], 303.15 K, x2 = 0	–	1388.3
[1], 303.15 K, x2 = 0.1284	–	1370.6
[1], 303.15 K, x2 = 0.2585	–	1348.1
[1], 303.15 K, x2 = 0.3814	–	1320.6
[1], 303.15 K, x2 = 0.5031	–	1284.7
[1], 303.15 K, x2 = 0.6487	–	1222.8
[1], 303.15 K, x2 = 0.7823	–	1132.7
[1], 303.15 K, x2 = 0.8561	–	1057.1
[1], 303.15 K, x2 = 0.8763	–	1031.4
[1], 303.15 K, x2 = 0.9039	–	991
[1], 303.15 K, x2 = 0.95	–	907.4
[1], 303.15 K, x2 = 0.9745	–	851.4
[1], 308.15 K, x2 = 0	–	1384
[1], 308.15 K, x2 = 0.1284	–	1366.2
[1], 308.15 K, x2 = 0.2585	–	1343.7
[1], 308.15 K, x2 = 0.3814	–	1316.1
[1], 308.15 K, x2 = 0.5031	–	1280.1
[1], 308.15 K, x2 = 0.6487	–	1218.2
[1], 308.15 K, x2 = 0.7823	–	1128
[1], 308.15 K, x2 = 0.8561	–	1052.4
[1], 308.15 K, x2 = 0.8763	–	1026.8
[1], 308.15 K, x2 = 0.9039	–	986.4
[1], 308.15 K, x2 = 0.95	–	902.9
[1], 308.15 K, x2 = 0.9745	–	846.9
[1], 313.15 K, x2 = 0	–	1379.6
[1], 313.15 K, x2 = 0.1284	–	1361.8
[1], 313.15 K, x2 = 0.2585	–	1339.2
[1], 313.15 K, x2 = 0.3814	–	1311.6
[1], 313.15 K, x2 = 0.5031	–	1275.6
[1], 313.15 K, x2 = 0.6487	–	1213.6
[1], 313.15 K, x2 = 0.7823	–	1123.3
[1], 313.15 K, x2 = 0.8561	–	1047.8
[1], 313.15 K, x2 = 0.8763	–	1022.1
[1], 313.15 K, x2 = 0.9039	–	981.8
[1], 313.15 K, x2 = 0.95	–	898.4
[1], 313.15 K, x2 = 0.9745	–	842.5
[1], 318.15 K, x2 = 0	–	1375.2
[1], 318.15 K, x2 = 0.1284	–	1357.4
[1], 318.15 K, x2 = 0.2585	–	1334.8
[1], 318.15 K, x2 = 0.3814	–	1307.1
[1], 318.15 K, x2 = 0.5031	–	1271
[1], 318.15 K, x2 = 0.6487	–	1209
[1], 318.15 K, x2 = 0.7823	–	1118.6
[1], 318.15 K, x2 = 0.8561	–	1043.1
[1], 318.15 K, x2 = 0.8763	–	1017.4
[1], 318.15 K, x2 = 0.9039	–	977.1
[1], 318.15 K, x2 = 0.95	–	893.8
[1], 318.15 K, x2 = 0.9745	–	838
[1], 323.15 K, x2 = 0	–	1370.9
[1], 323.15 K, x2 = 0.1284	–	1353.1
[1], 323.15 K, x2 = 0.2585	–	1330.4
[1], 323.15 K, x2 = 0.3814	–	1302.6
[1], 323.15 K, x2 = 0.5031	–	1266.5
[1], 323.15 K, x2 = 0.6487	–	1204.4
[1], 323.15 K, x2 = 0.7823	–	1114
[1], 323.15 K, x2 = 0.8561	–	1038.4
[1], 323.15 K, x2 = 0.8763	–	1012.7
[1], 323.15 K, x2 = 0.9039	–	972.4
[1], 323.15 K, x2 = 0.95	–	889.2
[1], 323.15 K, x2 = 0.9745	–	833.4
[1], 328.15 K, x2 = 0	–	1366.6
[1], 328.15 K, x2 = 0.1284	–	1348.7
[1], 328.15 K, x2 = 0.2585	–	1325.9
[1], 328.15 K, x2 = 0.3814	–	1298.1
[1], 328.15 K, x2 = 0.5031	–	1261.9
[1], 328.15 K, x2 = 0.6487	–	1199.7
[1], 328.15 K, x2 = 0.7823	–	1109.2
[1], 328.15 K, x2 = 0.8561	–	1033.7
[1], 328.15 K, x2 = 0.8763	–	1008
[1], 328.15 K, x2 = 0.9039	–	967.7
[1], 328.15 K, x2 = 0.95	–	884.5
[1], 328.15 K, x2 = 0.9745	–	828.8
[1], 333.15 K, x2 = 0	–	1362.3
[1], 333.15 K, x2 = 0.1284	–	1344.3
[1], 333.15 K, x2 = 0.2585	–	1321.5
[1], 333.15 K, x2 = 0.3814	–	1293.7
[1], 333.15 K, x2 = 0.5031	–	1257.4
[1], 333.15 K, x2 = 0.6487	–	1195.1
[1], 333.15 K, x2 = 0.7823	–	1104.5
[1], 333.15 K, x2 = 0.8561	–	1028.9
[1], 333.15 K, x2 = 0.8763	–	1003.3
[1], 333.15 K, x2 = 0.9039	–	963
[1], 333.15 K, x2 = 0.95	–	879.8
[1], 333.15 K, x2 = 0.9745	–	824.2
[2], 308.15 K, x2 = 0.1229	0.203	–
[2], 308.15 K, x2 = 0.2546	0.389	–
[2], 308.15 K, x2 = 0.2623	0.396	–
[2], 308.15 K, x2 = 0.2752	0.411	–
[2], 308.15 K, x2 = 0.3943	0.51	–
[2], 308.15 K, x2 = 0.5084	0.559	–
[2], 308.15 K, x2 = 0.5133	0.551	–
[2], 308.15 K, x2 = 0.5408	0.557	–
[2], 308.15 K, x2 = 0.6267	0.544	–
[2], 308.15 K, x2 = 0.7252	0.509	–
[2], 308.15 K, x2 = 0.7354	0.503	–
[2], 308.15 K, x2 = 0.7659	0.467	–
[2], 308.15 K, x2 = 0.8645	0.352	–
[2], 313.15 K, x2 = 0.113	0.187	–
[2], 313.15 K, x2 = 0.2393	0.374	–
[2], 313.15 K, x2 = 0.2549	0.385	–
[2], 313.15 K, x2 = 0.3933	0.518	–
[2], 313.15 K, x2 = 0.4936	0.569	–
[2], 313.15 K, x2 = 0.4959	0.567	–
[2], 313.15 K, x2 = 0.499	0.568	–
[2], 313.15 K, x2 = 0.6245	0.564	–
[2], 313.15 K, x2 = 0.7406	0.507	–
[2], 313.15 K, x2 = 0.8666	0.369	–
[2], 323.15 K, x2 = 0.1187	0.185	–
[2], 323.15 K, x2 = 0.2569	0.406	–
[2], 323.15 K, x2 = 0.2694	0.422	–
[2], 323.15 K, x2 = 0.3969	0.538	–
[2], 323.15 K, x2 = 0.527	0.6	–
[2], 323.15 K, x2 = 0.5431	0.611	–
[2], 323.15 K, x2 = 0.6214	0.598	–
[2], 323.15 K, x2 = 0.7499	0.548	–
[2], 323.15 K, x2 = 0.8707	0.413	–
